These results are taken from the METLIN SMRT retention time set (Domingo-Almenara et al. 2019).

The nature of this data set: gradient 5% acetonitrile 3 min, to 50% in 2 min, to 85% in 15 min, held 3 min, 100 µL/min. To be noted: column: Zorbax Extend-C18 2.1 x 50 mm; eluents: water / acetonitrile, 0.1% formic acid. An outline of the steps: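 Values are retention times taken from adduct peaks that software picked and an analyst inspected. The pure standards were run as mixtures of ~100 molecules on HPLC linked to a quadrupole time-of-flight mass spectrometer, in positive and negative ionization mode. A Zorbax Extend-C18 column (2.1 × 50 mm, 1.8 μm) was used at 100 μL/min with water and acetonitrile, each including 0.1% formic acid.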
`COc1ccc(NC(=O)N2CCCC2c2nc(-c3ccccc3OC)no2)cc1OC` (stereo not given) gave an RP-LC retention time of 941 s. For `O=C(NC1CC1)[C@@H]1C[C@H](Oc2ccccc2)CN1C(=O)c1n[nH]c(=O)c2ccccc12` the value was 685 s; for `COc1ccc(S(=O)(=O)N2CCCOC2CNC(=O)C(=O)NC2CCCCC2)cc1` (stereo not given), 822 s; for `Cc1ccccc1-c1noc(CN2N=NC3C(=O)N(c4cccc(Cl)c4)C(=O)C32)n1` (stereo not given), 996 s.

With `Cc1ccc(CNc2cc(-n3cccn3)ncn2)cc1`, the RP-LC retention time turned out to be 898 s. As for `COc1cc(OC)c(NC(=O)NCC(c2cccnc2)c2cn(C)c3ccccc23)cc1Cl` (stereo not given), the figure is 741 s. For `Cc1cc([N+](=O)[O-])ccc1NC(=O)c1ccc(-n2cnnn2)cc1` the value was 803 s; for `Fc1ccc(-c2ccc(CNCc3ccccn3)o2)cc1`, 655 s; for `Cc1nn(-c2ccccc2)c2c1N(CC(=O)N1CCN(c3ccccc3)CC1)C(=O)CS2`, 839 s. As for `O=C(Nc1ccc2sccc2c1)c1coc2ccccc2c1=O`, the figure is 1070 s.

`CC(=O)c1cccc(NC(=O)Cc2ccc3ccccc3c2)c1` showed an RP-LC retention time of 858 s. As for `Cc1nc(-c2noc(-c3cccc(F)c3)n2)cn1CC(=O)Nc1ccccc1`, the figure is 856 s; as for `Cc1cncn(CC(=O)NC2CCCC2)c1=O`, 576 s; as for `COc1ccccc1-c1nc(Cn2nnc(-c3nc(-c4ccc(C(F)(F)F)cc4)no3)c2C)c(C)o1`, 1240 s. As for `CCCCn1c(=O)c2ccccc2n(Cc2nc(-c3cc(OC)cc(OC)c3)no2)c1=O`, the figure is 1160 s; as for `CNC(=O)C1CN(S(=O)(=O)c2ccccc2)CC12CCCCC2` (stereo not given), 776 s. As for `CCCNC(=O)CCc1c(C)n(CC)c2nc(-c3ccccc3)nn2c1=O`, the figure is 697 s.

For `COc1cccc(-c2cc3c(=O)n(Cc4nc(-c5ccc(F)c(Br)c5)no4)ccn3n2)c1`, the RP-LC retention time worked out at 1090 s. `CCCn1cc(S(=O)(=O)Nc2cccc(Cl)c2)c2cccnc21`: the RP-LC retention time came out at 942 s. For `CC(NC(=O)C1(c2ccc(NS(C)(=O)=O)cc2)CCCCC1)c1ccccc1` (stereo not given) the value was 926 s; for `CCn1ccc2sc(C)c(C(=O)NCc3ccccc3OC)c2c1=O`, 796 s; for `CCc1ccc(NC(=O)CSc2cc(N3CCCCC3C)ncn2)cc1` (stereo not given), 1100 s. Turning to `Cc1ccc(-c2csc(NC(=O)Cc3csc(C)n3)n2)cc1`, the RP-LC retention time was 930 s. Compound `CC(C)N1CCN(Cc2ccc(C(=O)NCc3ccc(C(F)(F)F)cc3)cc2)C(=O)C1=O` returned an RP-LC retention time of 741 s. As for `O=C(Nc1nnc(Cc2ccccc2)s1)C1CCN(C(=O)c2cccc(F)c2)CC1`, the figure is 798 s; as for `COc1cccc(CNC(=O)C2(C)CCCN(C(=O)Nc3ccccc3)C2)c1` (stereo not given), 839 s. For `Cc1cc(N2CCCC2)n2nc(CN3CCN(c4ccccc4C)CC3)nc2n1` the value was 1210 s; for `O=C(CC1CCN(C(=O)c2ccc3oc(C4CC4)nc3c2)CC1)NCc1ccc2c(c1)OCO2`, 733 s; for `Cc1ccc(NC(=O)Cn2nc(C(=O)N3CCCC3)c3ccccc32)cc1Cl`, 950 s. As for `O=c1c2cc(-c3ccc4c(c3)OCO4)nn2ccn1Cc1ccccc1F`, the figure is 985 s; as for `COc1ccc(OC)c(NC(=O)c2[nH]c3cc(C)sc3c2CN(C)C)c1`, 692 s.

In turn, `CN(C)c1ncncc1N1CCC(C(=O)NC2CC2)CC1` showed an RP-LC retention time of 554 s. As for `Cn1nnc2ccc(-c3noc(-c4ccc(Cl)cc4)n3)cc21`, the figure is 1090 s.

As for `Cc1cc(C)c2c(N3CCCC3)nc(C(=O)NCc3ccc(C)o3)nc2n1`, the RP-LC retention time came out at 577 s. Compound `O=S(=O)(c1ccccc1)N1CCOc2ccccc21` registered an RP-LC retention time of 974 s.

For `CC(C)C(=O)NCc1csc(C2CCCN(C(=O)C3CCC3)C2)n1` (stereo not given), the RP-LC retention time worked out at 694 s. For `O=C(NCc1ccc(F)cc1F)C1CCN(c2cc(N3CCOCC3)ncn2)CC1` the value was 627 s; for `CCc1nc(N)n(CC(=O)Nc2cccc(C)c2)c(=O)c1C`, 610 s.

Compound `COC(=O)c1c(-c2ccccc2)noc1NCc1ccc(OC)cc1OC` showed an RP-LC retention time of 1070 s. For `CCOc1nc2ccccc2nc1N1CCCC(C(=O)Nc2ccccc2C(C)C)C1` (stereo not given) the value was 1230 s; for `O=S(=O)(c1ccc(Cl)cc1)c1nc(-c2ccco2)oc1NCCCn1ccnc1`, 597 s. The compound `Cc1ccccc1-c1noc(C2CCCN2S(=O)(=O)c2ccc(C(C)C)cc2)n1` (stereo not given) displayed an RP-LC retention time of 1340 s. As for `CN1CCN(CCCNC(=O)c2noc3c2CCCCC3)CC1`, the figure is 584 s; as for `O=C(NCc1cscn1)C1CCN(S(=O)(=O)c2ccc(Br)s2)CC1`, 740 s. In the case of `CCN(CC)CCOc1ccc(C(=C(Cl)c2ccccc2)c2ccccc2)cc1`, the RP-LC retention time came to 1010 s. As for `COCCn1ccc2nc(C)c(C(=O)NCCc3ccco3)cc2c1=O`, the figure is 638 s. Consider `Cc1ccc(OCC(=O)Nc2cc3[nH]c(=O)[nH]c3cc2C)cc1`, for which the RP-LC retention time was 698 s.

Turning to `O=C(NCC1CC(=O)N(Cc2ccc(F)cc2)C1)Nc1cccs1` (stereo not given), the RP-LC retention time came out at 668 s. As for `CCC(=O)Nc1ccc2c(c1)N(C(=O)c1ccco1)CCC2`, the figure is 725 s; as for `CCN1CCN(c2ccc(NC(=O)c3ccc(F)c(Cl)c3)cn2)C1=O`, 811 s; as for `Cc1nc2cc(-c3noc(-c4cccc(Cl)c4)n3)ccc2n(C)c1=O`, 1140 s.

In turn, `Cc1cccc(NC(=O)C2CC(=O)N(c3ccc4c(c3)CCN4C(=O)C3CC3)C2)c1` (stereo not given) displayed an RP-LC retention time of 816 s. As for `Cc1ccc(NC(=O)c2nnc(CCCC(=O)NCCc3c[nH]c4ccc(C)cc34)s2)cc1`, the figure is 946 s. The compound `CCC(=O)Nc1cccc(-c2noc(C3CCN(C(=O)CCc4c[nH]c5ccccc45)CC3)n2)c1` registered an RP-LC retention time of 869 s. For `CC(C)c1nnc2n1CCN(C(=O)c1ccsc1)C2` the value was 596 s; for `Cc1c2cnn(CC(=O)N3CCN(c4ccccn4)CC3)c(=O)c2c(C)n1Cc1ccccc1F`, 650 s. Turning to `COc1ccc(N2Cc3cccc(C(=O)O)c3C2=O)cc1`, the RP-LC retention time was 816 s. For `COc1ccc(Br)c(C(=O)Nc2ccc3c(c2)N(C(=O)C2CCCC2)CC3)c1` the value was 950 s; for `Cc1ccc(NC(=O)C(=O)NCC2CCN(S(=O)(=O)C3CC3)CC2)cc1F`, 828 s; for `CSc1ccc(CNC(=O)C2CCN(c3ccc(N4CCOCC4)nn3)CC2)cc1`, 638 s.

In turn, `O=C(Cn1cccc(-c2nc(-c3ccc(F)cc3)no2)c1=O)NCc1cccs1` registered an RP-LC retention time of 673 s. For `CS(=O)(=O)N1CCC(C2CCN(Cc3ccccc3C#N)C2)CC1` (stereo not given) the value was 590 s; for `COc1cc(C2=NN(C(C)=O)C(c3cccnc3)O2)cc(OC)c1OC` (stereo not given), 701 s. For `COC(=O)C1CCN(C(=O)C(=O)Nc2c3c(nn2-c2ccc(Cl)cc2)CSC3)CC1` the value was 671 s.

As to `Cc1ccc(N(Cc2ccccc2)S(=O)(=O)c2ccc3nnc(C)n3c2)cc1`, the RP-LC retention time turned out to be 884 s.

In the case of `O=C(Nc1ccccc1F)N1CC(Oc2cccc(-c3nc(-c4ccccc4)no3)c2)C1`, the RP-LC retention time is 1140 s. For `Cc1cccc(S(=O)(=O)N2CCC(c3cc(N)on3)CC2)c1` the value was 615 s.

Consider `CCNc1cc(N2CCC(CCC(=O)NCc3c(C)nn(C)c3C)CC2)ncn1`, for which the RP-LC retention time turned out to be 575 s.

In the case of `O=C(COc1ccc(Cl)cc1)Nc1nc2ccc([N+](=O)[O-])cc2s1`, the RP-LC retention time was 974 s. `Cc1nc(C)c(C(=O)Nc2ccc(F)c(C)c2)s1` returned an RP-LC retention time of 810 s.

The compound `O=C(O)C1CCN(c2nc3ccc(-c4cccnc4)nc3s2)CC1` displayed an RP-LC retention time of 610 s.

In turn, `CCN1CCN(S(=O)(=O)c2ccc(Cl)c(C(F)(F)F)c2)CC1` showed an RP-LC retention time of 569 s.

Compound `Cc1cc(C)c(CNC(=O)c2ccc(NC(=O)C3CC3)cc2N2CCOCC2)c(C)c1` showed an RP-LC retention time of 901 s.

Consider `CCn1cc(S(=O)(=O)N2CC3(CCCCC3)CC2COc2ccc(OC)cc2)cn1` (stereo not given), for which the RP-LC retention time was 1090 s.

Take `CC(C)(Oc1ccc(Cl)cc1)C(=O)Nc1ccc2cn[nH]c2c1`: the RP-LC retention time is 822 s. Compound `COc1nc2ccccc2nc1N1CCCC(C(=O)NC(C)c2ccccc2)C1` (stereo not given) gave an RP-LC retention time of 1050 s. As for `CCOc1ccc(N(CC)C(=O)c2nc(N(C)C)c3cnn(C)c3n2)cc1`, the figure is 745 s; as for `O=C(Cn1c(=O)c2cc(-c3ccco3)nn2c2ncccc21)Nc1ccc(F)cc1F`, 840 s; as for `Cc1ccc(CN2C(=O)CC(N3CCCCC3)C2=O)cc1` (stereo not given), 580 s. For `COc1ccc(NC(=O)N2CCC3(CC2)NC(=O)c2ccc(Cl)cc2N3C)cc1OC` the value was 734 s.
